Data on five compounds can be found in PMC11995216, “End-to-End Backbone Cyclization Enhances Passive Permeability of bRo5 Oligomeric Depsipeptides with Nonlinear Size Dependence” (ACS Medicinal Chemistry Letters, 2025).

The conditions of series [1]: PAMPA, cited from earlier work; for LogPapp: ratio-based method, series 2 macrocycles, previously reported, ref Thorpe et al., Chem. Sci. 2024, 15, 14977.
The subject of series [2] is PAMPA. Particulars: calculated using Supplement Equation 1, UV detection.
The subject of series [3] is PAMPA.
For series [4], the system named is PAMPA. The note with it: UV detection.
Series [5] relates to PAMPA. The note with it: initial concentration 500 uM.
The conditions of series [6]: PAMPA, 500 uM. (In general: PAMPA measures passive passage across an artificial lipid membrane.)
A short description of a further series: in vitro. The note with it: PAMPA, Papp.
The subject of series [7] is PAMPA. The note with it: initial concentration 500 uM, UV detection.
The subject of series [8] is PAMPA. The note with it: Well 3 / [acc]; Well 3; initial concentration 500 uM; UV detection.
Series [9] in a line: PAMPA, permeability assay across an artificial membrane. The note with it: increase: difference between percent diffusion of macrocycle vs linear counterpart.

Values joined by “and” are separate entries in the source; they are usually repeats but may differ in a detail not shown here. Equal values may be shown once. Read-outs that look alike come from different tables or passages of the source. Starred links: 1 amine or outer side, 2 acyl side, 3 side chain; linkers in the order of their positions; H or OH if unused. Non-standard residues stand in square brackets, D forms with d. Residues, ends and D or L forms follow the SMILES beside them. X1 = CCCCC[C@H](O[*:1])C(=O)[*:2]; Ahp(2) = CCCCC[C@H](N)C(=O)O; dNMeA = CN[C@H](C)C(=O)O

Consider `CC(C)NC[C@H](O)COc1cccc2ccccc12` [(S)‐Propranolol, reference compound], for which the “Literature Papp” value in [1] (ref Schmidt, D., Lynch, J. 2003, Millipore) was 10.0 x 10‐6.
Broadly, the Papp is the rate of passage across a membrane or cell layer, normalised by area and donor concentration. A lower Papp goes with slow passage. For the compound `CCCCC[C@@H]1OC(=O)[C@@H](C)N(C)C1=O` [Compound C1.1], the %T in the series on PAMPA [2] (Well 1 / %T, Well 1) is 0.91% and 0.93%; in the series with PAMPA [2] (Well 2 / %T, Well 2), 0.86% and 0.92%; in the series with PAMPA [2] (Well 3 / %T, Well 3), 0.89%; in the series on PAMPA [2] (Well 4 / %T, Well 4), 0.92% and 0.96%; with PAMPA [2] (Well 5 / %T, Well 5), 0.93% and 0.99%. The Papp with PAMPA [3] (Papp (x 10^-6 cm/s) – ELSD Detection / [row 1], ELSD Detection) was found to be 14.3 ×10⁻⁶ cm/s; in the series on PAMPA [3] (Papp (x 10^-6 cm/s) – ELSD Detection / [row 2], ELSD Detection), 13.6 ×10⁻⁶ cm/s; in the series on PAMPA [3] (Papp (x 10^-6 cm/s) – ELSD Detection / [row 3], ELSD Detection), 13.9 ×10⁻⁶ cm/s; in the series on PAMPA [3] (Papp (x 10^-6 cm/s) – ELSD Detection / [row 4], ELSD Detection), 15.4 ×10⁻⁶ cm/s; with PAMPA [3] (Papp (x 10^-6 cm/s) – ELSD Detection / [row 5], ELSD Detection) it was 15 ×10⁻⁶ cm/s; in the series on PAMPA [3] (Papp (x 10^-6 cm/s) – ELSD Detection / [row 6], ELSD Detection), 11.7 ×10⁻⁶ cm/s. The Papp in the series on PAMPA [3] (Papp (x 10^-6 cm/s) – ELSD Detection / [row 7], ELSD Detection) was 14.1 ×10⁻⁶ cm/s; in the series with PAMPA [3] (Papp (x 10^-6 cm/s) – ELSD Detection / [row 8], ELSD Detection) it was 15 ×10⁻⁶ cm/s; with PAMPA [3] (Papp (x 10^-6 cm/s) – ELSD Detection / [row 9], ELSD Detection), 14.8 ×10⁻⁶ cm/s; in the series with PAMPA [3] (Papp (x 10^-6 cm/s) – ELSD Detection / [row 10], ELSD Detection) it was 13.6 ×10⁻⁶ cm/s; with PAMPA [3] (Papp (x 10^-6 cm/s) – UV Detection / [row 1], UV Detection), 15.1 ×10⁻⁶ cm/s; with PAMPA [3] (Papp (x 10^-6 cm/s) – UV Detection / [row 2], UV Detection) it was 14.2 ×10⁻⁶ cm/s. Moreover, the apparent permeability (Papp) in the series with PAMPA [3] (Papp (x 10^-6 cm/s) – UV Detection / [row 3], UV Detection) worked out at 12.7 ×10⁻⁶ cm/s; with PAMPA [3] (Papp (x 10^-6 cm/s) – UV Detection / [row 4], UV Detection) it was 18 ×10⁻⁶ cm/s; in the series with PAMPA [3] (Papp (x 10^-6 cm/s) – UV Detection / [row 5], UV Detection), 19 ×10⁻⁶ cm/s; in the series with PAMPA [3] (Papp (x 10^-6 cm/s) – UV Detection / [row 6], UV Detection) it was 13.8 ×10⁻⁶ cm/s; with PAMPA [3] (Papp (x 10^-6 cm/s) – UV Detection / [row 7], UV Detection), 11.2 ×10⁻⁶ cm/s; with PAMPA [3] (Papp (x 10^-6 cm/s) – UV Detection / [row 8], UV Detection) it was 12.7 ×10⁻⁶ cm/s. Besides, the Papp with PAMPA [3] (Papp (x 10^-6 cm/s) – UV Detection / [row 9], UV Detection) stood at 14.3 ×10⁻⁶ cm/s; with PAMPA [3] (Papp (x 10^-6 cm/s) – UV Detection / [row 10], UV Detection), 15 ×10⁻⁶ cm/s. Besides, the % recovery in the series with PAMPA [4] (Well 1 / %R, Well 1) is 93% and 89%; in the series on PAMPA [4] (Well 2 / %R, Well 2), 93% and 90%; with PAMPA [4] (Well 3 / %R, Well 3), 92% and 95%; with PAMPA [4] (Well 4 / %R, Well 4) it was 99% and 95%; in the series with PAMPA [4] (Well 5 / %R, Well 5), 99%. For the same compound, the Acceptor Concentration with PAMPA [5] (Acceptor Concentration (uM) – ELSD Detection / [row 1], ELSD Detection) stood at 225 µM; with PAMPA [5] (Acceptor Concentration (uM) – ELSD Detection / [row 2], ELSD Detection) it was 205 µM; in the series on PAMPA [5] (Acceptor Concentration (uM) – ELSD Detection / [row 3], ELSD Detection) it was 212 µM; in the series with PAMPA [5] (Acceptor Concentration (uM) – ELSD Detection / [row 4], ELSD Detection), 216 µM; in the series with PAMPA [5] (Acceptor Concentration (uM) – ELSD Detection / [row 5], ELSD Detection), 207 µM; in the series on PAMPA [5] (Acceptor Concentration (uM) – ELSD Detection / [row 6], ELSD Detection) it was 206 µM. Further, the Acceptor Concentration is 216 µM with PAMPA [5] (Acceptor Concentration (uM) – ELSD Detection / [row 7], ELSD Detection); 218 µM with PAMPA [5] (Acceptor Concentration (uM) – ELSD Detection / [row 8], ELSD Detection); 208 µM in the series with PAMPA [5] (Acceptor Concentration (uM) – ELSD Detection / [row 9], ELSD Detection); 202 µM in the series on PAMPA [5] (Acceptor Concentration (uM) – ELSD Detection / [row 10], ELSD Detection); 208 µM with PAMPA [5] (Acceptor Concentration (uM) – UV Detection / [row 1], UV Detection); 204 µM in the series with PAMPA [5] (Acceptor Concentration (uM) – UV Detection / [row 2], UV Detection). Moreover, the Acceptor Concentration worked out at 193 µM with PAMPA [5] (Acceptor Concentration (uM) – UV Detection / [row 3], UV Detection); 231 µM in the series on PAMPA [5] (Acceptor Concentration (uM) – UV Detection / [row 4], UV Detection); 245 µM with PAMPA [5] (Acceptor Concentration (uM) – UV Detection / [row 5], UV Detection); 193 µM in the series with PAMPA [5] (Acceptor Concentration (uM) – UV Detection / [row 6], UV Detection); 178 µM in the series with PAMPA [5] (Acceptor Concentration (uM) – UV Detection / [row 7], UV Detection); 199 µM in the series on PAMPA [5] (Acceptor Concentration (uM) – UV Detection / [row 8], UV Detection). Also, the Acceptor Concentration was determined as 208 µM in the series with PAMPA [5] (Acceptor Concentration (uM) – UV Detection / [row 9], UV Detection) and 209 µM with PAMPA [5] (Acceptor Concentration (uM) – UV Detection / [row 10], UV Detection). In addition, in [6], the Δ % diffusion entry was “↑22%”. Also, the figures for the apparent permeability coefficient (Papp) at 500 uM in “in vitro” and in “in vitro” (Ave) were 14.6 ± 2.38 ×10⁻⁶ cm/s and 14.1 ×10⁻⁶ cm/s, respectively. Moreover, the donor concentration after incubation in the series with PAMPA [7] (Well 1 / [donor], Well 1) was 259 µM and 253 µM; in the series with PAMPA [7] (Well 2 / [donor], Well 2), 262 µM and 271 µM; in the series with PAMPA [7] (Well 3 / [donor], Well 3), 267 µM and 276 µM; in the series with PAMPA [7] (Well 4 / [donor], Well 4), 264 µM and 266 µM; in the series with PAMPA [7] (Well 5 / [donor], Well 5), 250 µM and 261 µM. The acceptor concentration after incubation in the series on PAMPA [8] came to 193 µM.
For `CCCCC[C@@H]1NC(=O)[C@@H](C)N(C)C(=O)[C@H](CCCCC)OC(=O)[C@@H](C)N(C)C(=O)[C@H](CCCCC)OC(=O)[C@@H](C)N(C)C(=O)[C@H](CCCCC)OC(=O)[C@@H](C)N(C)C1=O` [Compound C2.1] (cyclo([Ahp(2)][dNMeA][X1][dNMeA][X1][dNMeA][X1][dNMeA])), the LogPapp in series [1] was -4.91 ± 0.09. Further, the Δ % diffusion result in series [9] is “↑19%”.
Take `CCCCC[C@@H]1NC(=O)[C@@H](C)N(C)C(=O)[C@H](CCCCC)OC(=O)[C@@H](C)N(C)C(=O)[C@H](CCCCC)OC(=O)[C@@H](C)N(C)C(=O)[C@H](CCCCC)NC(=O)[C@@H](C)N(C)C1=O` [Compound C2.2] (cyclo([Ahp(2)][dNMeA][Ahp(2)][dNMeA][X1][dNMeA][X1][dNMeA])): the LogPapp in [1] is -5.05 ± 0.03. In addition, in [9], the Δ % diffusion result was “↑17%”.
Take `CCCCC[C@@H]1NC(=O)[C@@H](C)N(C)C(=O)[C@H](CCCCC)NC(=O)[C@@H](C)N(C)C(=O)[C@H](CCCCC)OC(=O)[C@@H](C)N(C)C(=O)[C@H](CCCCC)NC(=O)[C@@H](C)N(C)C1=O` [Compound C2.4] (cyclo([Ahp(2)][dNMeA][Ahp(2)][dNMeA][Ahp(2)][dNMeA][X1][dNMeA])): in [1], the LogPapp is reported as -5.33 ± 0.07. Besides, in series [9], the Δ % diffusion result is reported as “↑7%”.
